In patent US20110178174A1, “SALTS OF TRAMADOL AND IBUPROFEN AND THEIR CRYSTAL FORM IN THE TREATMENT OF PAIN” (LABORATORIOS DEL DR. ESTEVE, S.A., priority 2008, published 2011):

Legend:
[1] = Thermogravimetric (TG) analysis, weight loss due to decomposition; assay type: physicochemical; details: heated at 10° C./min from 30 to 500° C., under nitrogen (80 mL/min)
Procedure: Thermogravimetric analyses were recorded in a Mettler Toledo SDTA851e. Samples of 3-4 mg were weighted into 40 μL aluminium crucibles with a pinhole lid, and heated at 10° C./min from 30 to 500° C., under nitrogen (80 mL/min).

[2] = cited from earlier work

Molecule	TG analysis: weight loss beginning due to decomposition (temperature) [1] [°C]	amount of ibuprofen that dissolves in 1 ml of water [2]
CC(C)Cc1ccc([C@H](C)C(=O)O)cc1.COc1cccc([C@]2(O)CCCC[C@H]2CN(C)C)c1 [(−)-tramadol-(S)-ibuprofen salt, Phase 1]	140	
CC(C)Cc1ccc(C(C)C(=O)O)cc1 (stereo not shown) [ibuprofen, 2-[4-(2-methylpropyl)phenyl]propanoic acid]		Less than 1 mg
(+)-tramadol-(S)-ibuprofen salt	130	
CC(C)Cc1ccc([C@H](C)C(=O)O)cc1.COc1cccc([C@]2(O)CCCC[C@H]2CN(C)C)c1 [(−)-tramadol-(S)-ibuprofen salt, Phase 2, (−)-tramadol-(S)-ibuprofen Salt, Phase 2]	130	
